Results: patent publication US4801613A, “Bradykinin antagonist peptides” (Nova Technology Limited Partnership, priority 1987, dated 1989)
Read-outs that look alike come from different tables or passages of the source. Non-standard residues stand in square brackets, D forms with d. Residues, ends and D or L forms follow the SMILES beside them. No end group written: not given here. Hyp = O=C(O)[C@@H]1C[C@@H](O)CN1; 2Thi = N[C@@H](Cc1cccs1)C(=O)O; d2Thi = N[C@H](Cc1cccs1)C(=O)O

Legend:
Type in all cases: cell-based
[1] = tested on: isolated guinea pig ileum
Procedure: (§1) The bradykinin antagonists were assayed on isolated rat uterus in natural or induced estrus and on guinea pig ileum, according to the commonly accepted assay methods for bradykinin and related kinins as described by Trautschold (Handbook of Expt. Pharmacol. Vol. 25, Springer Verlag, pp 53-55, 1970) for inhibition of the myotropic activity of bradykinin. The inhibition potencies, as determined according to the commonly accepted manner described by Schild for antagonists of biologically active compounds (Br. J. Pharmacol. 2:189, 1947), are determined on isolated rat uterus (RUT) and isolated guinea pig ileum (GPI). In the assays, a dose-response curve is determined for the reference substance bradykinin. The dose of bradykinin which produced a half maximal contraction of tissue is the ED50 dose. An amount of bradykinin equivalent to twice the ED50 dose is administered to the tissue 30 seconds after the start of incubation of the tissue with a dose of antagonist. Doses of antagonist are increased in this protocol until pre-incubation with a dose of antagonist reduces the contraction in response to the double ED50 dose of bradykinin to response of a single ED50 dose of bradykinin. The pA2 value represents the negative logarithm of the molar concentration of antagonist necessary to reduce the response of a double ED50 dose of bradykinin to that of an ED50 dose. One unit of pA2 value represents an order of magnitude change in potency. For comparison, the negative log of the dose of BK, the dose which causes half maximal contraction of the tissues, is commonly known as the pD2 value. The pD2 value for bradykinin is 7.9 on the rat uterus and 7.4 on the guinea pig ileum.
(§2) In each case, as shown, the BK-related antagonists inhibited contractions produced by BK-related agonists, but had no effect on the non-kinin myotropic peptide substances. The inhibition potencies are listed as pA2 values as described above.

isolated rat uterus = tested on: isolated rat uterus
Procedure: as §1

guinea pig ileum = tested on: guinea pig ileum
Procedure: as §1, §2

[2] = isolated rat uterus, vs double ED50 dose of bradykinin, Schild
[3] = isolated guinea pig ileum, vs double ED50 dose of bradykinin, Schild

Compound: N=C(N)NCCC[C@H](NC(=O)[C@H](Cc1ccccc1)NC(=O)[C@@H](Cc1cccs1)NC(=O)[C@H](CO)NC(=O)[C@H](Cc1ccccc1)NC(=O)CNC(=O)[C@@H]1CCCN1C(=O)[C@@H]1CCCN1C(=O)[C@@H](N)CCCNC(=N)N)C(=O)O [Example 2, Arg-Pro-Pro-Gly-Phe-Ser-DThi-Phe-Arg] (H-RPPGFS[d2Thi]FR-OH)
- pA2/GPI [1]: 4.6

Compound: N=C(N)NCCC[C@H](NC(=O)[C@H](Cc1cccs1)NC(=O)[C@@H](Cc1ccccc1)NC(=O)[C@H](CO)NC(=O)[C@H](Cc1cccs1)NC(=O)CNC(=O)[C@@H]1C[C@@H](O)CN1C(=O)[C@@H]1CCCN1C(=O)[C@@H](N)CCCNC(=N)N)C(=O)O [Example 20, Arg-Pro-Hyp-Gly-Thi-Ser-DPhe-Thi-Arg] (H-RP[Hyp]G[2Thi]S[dF][2Thi]R-OH)
- pA2/GPI [1]: 4.7
- pA2/RUT (isolated rat uterus): 7.0

Compound: N=C(N)NCCC[C@@H](N)C(=O)N[C@@H](CCCNC(=N)N)C(=O)N1CCC[C@H]1C(=O)N1CCC[C@H]1C(=O)NCC(=O)N[C@@H](Cc1cccs1)C(=O)N[C@@H](CO)C(=O)N[C@H](Cc1ccccc1)C(=O)N[C@@H](Cc1cccs1)C(=O)N[C@@H](CCCNC(=N)N)C(=O)O [Example 15, DArg-Arg-Pro-Pro-Gly-Thi-Ser-DPhe-Thi-Arg] (H-[dR]RPPG[2Thi]S[dF][2Thi]R-OH)
- GUINEA PIG ILEUM KAL (pA2) (guinea pig ileum): 6.7
- GUINEA PIG ILEUM MK--BK (pA2) (guinea pig ileum): 6.4
- GUINEA PIG ILEUM BK (pA2) [1]: 6.1
- RUT pA2 (isolated rat uterus): 5.2
- pA2/RUT (isolated rat uterus): 5.5

Compound: N=C(N)NCCC[C@H](NC(=O)[C@H](Cc1cccs1)NC(=O)[C@@H](Cc1cccs1)NC(=O)[C@H](CO)NC(=O)[C@H](Cc1cccs1)NC(=O)CNC(=O)[C@@H]1CCCN1C(=O)[C@@H]1CCCN1C(=O)[C@@H](N)CCCNC(=N)N)C(=O)O [Example 7, Arg-Pro-Pro-Gly-Thi-Ser-DThi-Thi-Arg] (H-RPPG[2Thi]S[d2Thi][2Thi]R-OH)
- pA2/GPI [1]: 5.8
- pA2/RUT (isolated rat uterus): 4.2

Compound: N=C(N)NCCC[C@@H](N)C(=O)N[C@@H](CCCNC(=N)N)C(=O)N1CCC[C@H]1C(=O)N1CCC[C@@H]1C(=O)NCC(=O)N[C@@H](Cc1cccs1)C(=O)N[C@@H](CO)C(=O)N[C@H](Cc1ccccc1)C(=O)N[C@@H](Cc1cccs1)C(=O)N[C@@H](CCCNC(=N)N)C(=O)O [Example 16, DArg-Arg-Pro-DPro-Gly-Thi-Ser-DPhe-Thi-Arg] (H-[dR]RP[dP]G[2Thi]S[dF][2Thi]R-OH)
- pA2/RUT (isolated rat uterus): 5.2

Compound: N=C(N)NCCC[C@H](NC(=O)[C@H](Cc1ccccc1)NC(=O)[C@@H](Cc1ccccc1)NC(=O)[C@H](CO)NC(=O)[C@H](Cc1ccccc1)NC(=O)CNC(=O)[C@@H]1CCCN1C(=O)[C@@H]1CCCN1C(=O)[C@H](CCCNC(=N)N)NC(=O)[C@H](CCCCN)NC(=O)[C@@H](N)CCCCN)C(=O)O [Example 13, Lys-Lys-Arg-Pro-Pro-Gly-Phe-Ser-DPhe-Phe-Arg] (H-KKRPPGFS[dF]FR-OH)
- pA2/GPI [1]: 5.1

Compound: N=C(N)NCCC[C@H](NC(=O)[C@H](Cc1ccccc1)NC(=O)[C@@H](Cc1ccccc1)NC(=O)[C@@H](Cc1ccccc1)NC(=O)[C@H](Cc1ccccc1)NC(=O)CNC(=O)[C@@H]1CCCN1C(=O)[C@@H]1CCCN1C(=O)[C@@H](N)CCCNC(=N)N)C(=O)O [Example 4, Arg-Pro-Pro-Gly-Phe-DPhe-DPhe-Phe-Arg] (H-RPPGF[dF][dF]FR-OH)
- pA2/GPI [1]: 5.2

Compound: N=C(N)NCCC[C@@H](N)C(=O)N[C@@H](CCCNC(=N)N)C(=O)N1C[C@H](O)C[C@H]1C(=O)N1C[C@H](O)C[C@H]1C(=O)NCC(=O)N[C@@H](Cc1cccs1)C(=O)N[C@@H](CO)C(=O)N[C@H](Cc1ccccc1)C(=O)N[C@@H](Cc1cccs1)C(=O)N[C@@H](CCCNC(=N)N)C(=O)O [Example 65, DArg-Arg-Hyp-Hyp-Gly-Thi-Ser-DPhe-Thi-Arg] (H-[dR]R[Hyp][Hyp]G[2Thi]S[dF][2Thi]R-OH)
- pA2/RUT (isolated rat uterus): 7.1

Compound: N=C(N)NCCC[C@@H](N)C(=O)N[C@@H](CCCNC(=N)N)C(=O)N1CCC[C@H]1C(=O)N1CCC[C@H]1C(=O)NCC(=O)N[C@@H](Cc1ccccc1)C(=O)N[C@@H](CO)C(=O)N[C@H](Cc1ccccc1)C(=O)N[C@@H](Cc1ccccc1)C(=O)N[C@@H](CCCNC(=N)N)C(=O)O [Example 10, DArg-Arg-Pro-Pro-Gly-Phe-Ser-DPhe-Phe-Arg]
- GUINEA PIG ILEUM KAL (pA2) (guinea pig ileum; agonist kallidin (Lys-BK)): 6.0
- GUINEA PIG ILEUM MK--BK (pA2) (guinea pig ileum; agonist methionyl-lysyl-BK): 6.3
- GPI pA2 [1]: 5.0
- GUINEA PIG ILEUM BK (pA2) [1]: 5.6
- RUT AG = agonist potency relative to BK = 100 (isolated rat uterus): 0.1%

Compound: N=C(N)NCCC[C@H](NC(=O)[C@H](Cc1cccs1)NC(=O)[C@@H](Cc1ccccc1)NC(=O)[C@H](CO)NC(=O)[C@H](Cc1cccs1)NC(=O)CNC(=O)[C@@H]1CCCN1C(=O)[C@@H]1C[C@@H](O)CN1C(=O)[C@@H](N)CCCNC(=N)N)C(=O)O [Example 18, Arg-Hyp-Pro-Gly-Thi-Ser-DPhe-Thi-Arg] (H-R[Hyp]PG[2Thi]S[dF][2Thi]R-OH)
- pA2/RUT (isolated rat uterus): 5.6

Compound: Arg-Pro-Pro-Gly-Thi-Ser-DPal-Thi-Arg [Example 8]
- pA2/RUT (isolated rat uterus; [2]): 4.2

Compound: Arg-Hyp-Hyp-Gly-Thi-DPhe-CDF-Thi-Arg [Example 23]
- pA2/RUT (isolated rat uterus; [2]): 6.5

Compound: Arg-Pro-Pro-Gly-Phe-Ser-DPal-Phe-Arg [Example 3]
- pA2/GPI [1, 3]: 4.8
- pA2/RUT (isolated rat uterus; [2]): 5.0

Compound: N=C(N)NCCC[C@@H](N)C(=O)N[C@@H](CCCNC(=N)N)C(=O)N1C[C@H](O)C[C@H]1C(=O)N1CCC[C@H]1C(=O)NCC(=O)N[C@@H](Cc1cccs1)C(=O)N[C@@H](CO)C(=O)N[C@H](Cc1ccccc1)C(=O)N[C@@H](Cc1cccs1)C(=O)N[C@@H](CCCNC(=N)N)C(=O)O [Example 64, DArg-Arg-Hyp-Pro-Gly-Thi-Ser-DPhe-Thi-Arg] (H-[dR]R[Hyp]PG[2Thi]S[dF][2Thi]R-OH)
- pA2/RUT (isolated rat uterus): 5.7

Compound: Arg-Pro-Pro-Gly-Phe-DPhe-CDF-Phe-Arg [Example 5]
- pA2/GPI [1, 3]: 5.8
- pA2/RUT (isolated rat uterus; [2]): 4.9

Compound: N=C(N)NCCC[C@@H](N)C(=O)N[C@@H](CCCNC(=N)N)C(=O)N1CCC[C@H]1C(=O)N1C[C@H](O)C[C@H]1C(=O)NCC(=O)N[C@@H](Cc1cccs1)C(=O)N[C@@H](CO)C(=O)N[C@H](Cc1ccccc1)C(=O)N[C@@H](Cc1cccs1)C(=O)N[C@@H](CCCNC(=N)N)C(=O)O [Example 21, DArg-Arg-Pro-Hyp-Gly-Thi-Ser-DPhe-Thi-Arg] (H-[dR]RP[Hyp]G[2Thi]S[dF][2Thi]R-OH)
- pA2/RUT (isolated rat uterus): 7.2

Compound: N=C(N)NCCC[C@H](NC(=O)[C@H](Cc1cccs1)NC(=O)[C@@H](Cc1ccccc1)NC(=O)[C@H](CO)NC(=O)[C@H](Cc1cccs1)NC(=O)CNC(=O)[C@@H]1CCCN1C(=O)[C@@H]1CCCN1C(=O)[C@H](CCCNC(=N)N)NC(=O)[C@H](CCCCN)NC(=O)[C@@H](N)CCCCN)C(=O)O [Example 14, Lys-Lys-Arg-Pro-Pro-Gly-Thi-Ser-DPhe-Thi-Arg] (H-KKRPPG[2Thi]S[dF][2Thi]R-OH)
- pA2/GPI [1]: 5.3
- pA2/RUT (isolated rat uterus): 6.0

Compound: N=C(N)NCCC[C@H](NC(=O)[C@H](Cc1cccs1)NC(=O)[C@@H](Cc1ccccc1)NC(=O)[C@H](CO)NC(=O)[C@H](Cc1cccs1)NC(=O)CNC(=O)[C@@H]1C[C@@H](O)CN1C(=O)[C@@H]1C[C@@H](O)CN1C(=O)[C@@H](N)CCCNC(=N)N)C(=O)O [Example 22, Arg-Hyp-Hyp-Gly-Thi-Ser-DPhe-Thi-Arg] (H-R[Hyp][Hyp]G[2Thi]S[dF][2Thi]R-OH)
- pA2/RUT (isolated rat uterus): 6.7

Compound: N=C(N)NCCC[C@H](NC(=O)[C@H](Cc1ccccc1)NC(=O)[C@@H](Cc1ccccc1)NC(=O)[C@H](CO)NC(=O)[C@H](Cc1ccccc1)NC(=O)CNC(=O)[C@@H]1CCCN1C(=O)[C@@H]1C[C@@H](O)CN1C(=O)[C@H](CCCNC(=N)N)NC(=O)[C@H](CCCCN)NC(=O)[C@@H](N)CCCCN)C(=O)O [Example 72, Lys-Lys-Arg-Hyp-Pro-Gly-Phe-Ser-DPhe-Phe-Arg] (H-KKR[Hyp]PGFS[dF]FR-OH)
- pA2/RUT (isolated rat uterus): 5.6

Compound: N=C(N)NCCC[C@@H](N)C(=O)N[C@@H](CCCNC(=N)N)C(=O)N1CCC[C@H]1C(=O)N1CCC[C@@H]1C(=O)NCC(=O)N[C@@H](Cc1ccccc1)C(=O)N[C@@H](CO)C(=O)N[C@H](Cc1ccccc1)C(=O)N[C@@H](Cc1ccccc1)C(=O)N[C@@H](CCCNC(=N)N)C(=O)O [Example 11, DArg-Arg-Pro-DPro-Gly-Phe-Ser-DPhe-Phe-Arg]
- RUT pA2 (isolated rat uterus): 4.6
- pA2/RUT (isolated rat uterus): 4.0

Compound: N=C(N)NCCC[C@H](NC(=O)[C@H](Cc1cccs1)NC(=O)[C@@H](Cc1ccccc1)NC(=O)[C@H](CO)NC(=O)[C@H](Cc1cccs1)NC(=O)CNC(=O)[C@@H]1C[C@@H](O)CN1C(=O)[C@@H]1CCCN1C(=O)[C@H](CCCNC(=N)N)NC(=O)[C@H](CCCCN)NC(=O)[C@@H](N)CCCCN)C(=O)O [Example 77, Lys-Lys-Arg-Pro-Hyp-Gly-Thi-Ser-DPhe-Thi-Arg] (H-KKRP[Hyp]G[2Thi]S[dF][2Thi]R-OH)
- pA2/RUT (isolated rat uterus): 6.7

Compound: KKR[Hyp]G[2Thi]S[dF][2Thi]R [Example 19]
- pA2/RUT (isolated rat uterus; [2]): 5.8
